Data published in patent publication US20170362210A1, “ANTI-ESTROGENIC COMPOUNDS” (PFIZER INC., priority 2015, published 2017).
pIC50: −log10 of the molar value. Where two headings read alike, the source gives them in different places.

Legend:
Type in all cases: cell-based, human
[1] = test system: MCF-7 breast cancer cells; assay: Inhibition of E2-stimulated proliferation of MCF-7 breast cancer cells; settings: 100 pM E2, hormone-depleted medium, 6-8 days
Procedure: Proliferation of MCF-7 breast cancer cells was measured using a fluorescent DNA binding dye 6-8 days after treatment in triplicate with representative compounds in the presence of 100 pM E2 in hormone-depleted medium. IC50's were calculated from individual experiments as in Example 25.

[2] = test system: AP activity in ECC-1 cells; assay: Alkaline phosphatase (AP) assay in ECC-1 cells co-treated with 500 pM E2; settings: 3 days
Procedure: (§1) Method for performing the alkaline phosphatase (AP) assay. ECC-1 cells (American Type Culture Collection, Manassas, Va.) were maintained in RPMI medium plus 10% fetal bovine serum at 37° C. At the beginning of the assay trypsinized cells were resuspended in RPMI medium plus 5% charcoal dextran stripped serum (CDSS, (Hyclone, Logan, Utah)) and plated at a density of 25-50 k cells per well into a 96-well plate for at least 6 hours. Representative compounds were diluted in serum-free medium and added 1:1 to plated cells in replicate wells (2.5% CDSS final). Plates were incubated for 3 days at 37° C. and subsequently frozen at −80° C. to lyse cells after removing the medium. Thawed plates were incubated with a chromogenic substrate of AP, p-nitrophenyl phosphate (Invitrogen, Grand Island, N.Y.), for 40 minutes at 40° C. Absorbances were read at 405 nm using a plate spectrophotometer. AP activity was normalized to 500 pM 17β-estradiol (E2), reported as the maximum activity observed for each individual experiment, regardless of dose.
AP activity was assayed as in Example 28 but cells were co-treated with 500 pM E2.

[3] = test system: AP activity in ECC-1 cells; assay: Alkaline phosphatase (AP) assay in ECC-1 uterine cells, induction of AP activity; settings: 3 days, normalized to 500 pM E2, maximum activity observed regardless of dose
Procedure: as §1

[4] = test system: estrogen-responsive reporter gene (ERE-tk109-Luc) in MCF-7 cells; assay: Inhibition of E2-induced transcription, ERE-tk109-Luc reporter gene in MCF-7 cells; settings: 100 pM 17β-estradiol (E2), 18-22 hours, read-out: IC50, inhibition of E2-induced transcription in breast cells
Procedure: Representative compounds were tested for their inhibitory activity of estrogen according to the assay methods described in Hodges-Gallagher, L., Valentine, C. V., El Bader, S. and Kushner, P. J. (2007) “Histone Deacetylase Inhibitors Enhance the Efficacy of Hormonal Therapy Agents on Breast Cancer Cells and Blocks Anti-estrogen-Driven Uterine Cell Proliferation” Breast Cancer Res Treat, November; 105(3):297-309. Specifically, an estrogen-responsive reporter gene (ERE-tk109-Luc) was transiently transfected into MCF-7 cells and treated with anti-estrogens in triplicate in the presence of 100 pM 17β-estradiol (E2) for 18-22 hours. Luciferase activity was normalized to activity of E2 alone and IC50's were calculated using the least squares fit method.

[5] = Homo sapiens, MCF7, MCF-7 cells

SMILES	pIC50 ([1]; MCF-7 cells)	pIC50 ([4]; MCF-7 cells)	pIC50 [1, 5]	pIC50 [4, 5]	AP activity (% E2), cells co-treated with 500 pM E2 [2]	Induction of AP activity in uterine cells (% E2) [3]
CCCN1CC(Oc2ccc(C3Oc4cc(O)ccc4C(C)=C3c3ccc(O)cc3)cc2F)C1 (single isomer, unassigned) [Compound 108, 2-(3-fluoro-4-((1-propylazetidin-3-yl)oxy)phenyl)-3-(4-hydroxyphenyl)-4-methyl-2H-chromen-7-ol]	8.05	9.00	–	–	4 % E2	3 % E2
CCCN1CC(Oc2ccc(C3Oc4cc(O)ccc4C(C)=C3c3ccc(O)cc3)cc2F)C1 (single isomer, unassigned) [Compound 109, 2-(3-fluoro-4-((1-propylazetidin-3-yl)oxy)phenyl)-3-(4-hydroxyphenyl)-4-methyl-2H-chromen-7-ol]	7.40	6.96	–	–	42 % E2	18 % E2
CCCN1CC(Oc2ccc(C3Oc4cc(O)ccc4C(C)=C3c3ccccc3)cc2)C1 (stereo not drawn) [Compound 114, 4-methyl-3-phenyl-2-(4-((1-propylazetidin-3-yl)oxy)phenyl)-2H-chromen-7-ol]	–	–	7.85	8.30	23 % E2	15 % E2
CCCN1CC(Oc2ccc(C3Oc4cc(O)ccc4C(C)=C3c3ccc(O)cc3)cc2F)C1 (stereo not drawn) [Compound 107, 2-(3-fluoro-4-((1-propylazetidin-3-yl)oxy)phenyl)-3-(4-hydroxyphenyl)-4-methyl-2H-chromen-7-ol]	–	–	7.89	8.30	4 % E2	3 % E2

Now from value to compound, other results behind:

pIC50 ([1]; MCF-7 cells)	pIC50 ([4]; MCF-7 cells)	pIC50 [1, 5]	pIC50 [4, 5]	SMILES	AP activity (% E2), cells co-treated with 500 pM E2 [2]	Induction of AP activity in uterine cells (% E2) [3]
–	–	7.82	8.00	CCCN1CC(Oc2ccc(C3Oc4cc(O)ccc4C(C)=C3c3ccc(F)cc3)cc2)C1 (stereo not drawn) [Compound 115, 3-(4-fluorophenyl)-4-methyl-2-(4-((1-propylazetidin-3-yl)oxy)phenyl)-2H-chromen-7-ol]	42 % E2	20 % E2
–	–	8.30	8.30	CCCN1CC(Oc2ccc(C3Oc4cc(O)ccc4C(C)=C3c3ccc(F)cc3Cl)cc2)C1 (stereo not drawn) [Compound 116, 3-(2-chloro-4-fluorophenyl)-4-methyl-2-(4-((1-propylazetidin-3-yl)oxy)phenyl)-2H-chromen-7-ol]	24 % E2	9 % E2
